The subject of one experiment is SW-48 (Colorectal). As to the kind of experiment: MTT cytotoxicity assay, SW-48. The following applies: Homo sapiens, SW48, 72 hour incubation. The class given is cell-based. The method, then:
(§1) The in vitro cytotoxicity of compounds 16 and 22 were evaluated in a panel of cell lines using the standard MTT assay for a 72 hour incubation period (Table 2). Free payloads produced cytotoxicities in the nanomolar to picomolar range.
(§2) Tumor cell lines were maintained in RPMI1640 medium supplemented with 10% heat-inactivated fetal bovine serum, 2 mM L-glutamine and 1 mM sodium pyruvate. 1800 cells per well were seeded in a volume of 180 μl in a 96-well flat bottom polystyrene plate. The cells were allowed to adhere overnight at 37° C. in a CO2 incubator. Ligands were initially formulated in DMSO, and stocks stored at −80° C. They were then further formulated at lox concentration in RPMI1640 medium. 20 ul of diluted samples were added into each treatment well. On each plate, blank wells with no cells, and untreated wells containing cells, were included. […] Cytotoxicity was evaluated using a tetrazolium salt-based assay, the MTT assay. […] The plate was then read on a plate reader at 540 nm, and percentage cell survival calculated as follows: ((mean absorbance treated wells at concentration x−mean absorbance blank wells)÷(mean absorbance untreated wells at concentration x−mean absorbance blank wells))×100. Data were plotted as concentration in nM vs. % cell survival in Microsoft Excel, and IC50 values (concentration where cell survival is reduced by a half) were determined from the graph.
(In general: Tetrazolium assays rely on reduction of a dye to a coloured formazan, in cell work by metabolically active cells.)

Another experiment relates to LIM1215 (Colorectal). As to the kind of experiment: MTT cytotoxicity assay, LIM1215. Format: cell-based. The following applies: for IC50: LIM1215, MTT assay, 72 hour incubation, HIF1 negative cell-line. How it is done:
as §1
Tumor cell lines were maintained in RPMI1640 medium supplemented with 10% heat-inactivated fetal bovine serum, 2 mM L-glutamine and 1 mM sodium pyruvate. 1800 cells per well were seeded in a volume of 180 μl in a 96-well flat bottom polystyrene plate. The cells were allowed to adhere overnight at 37° C. in a CO2 incubator. Ligands were initially formulated in DMSO, and stocks stored at −80° C. They were then further formulated at lox concentration in RPMI1640 medium. 20 ul of diluted samples were added into each treatment well. On each plate, blank wells with no cells, and untreated wells containing cells, were included. Plates were then cultured at 37° C. in a CO2 incubator for 72 hrs. Cytotoxicity was evaluated using a tetrazolium salt-based assay, the MTT assay. After 72 hours, the supernatant was removed from each well and 200 μl of a sterile filtered 500 μg/ml MTT solution in water added to each well. The plates were then incubated at 37° C. in a CO2 incubator for 4 hrs. The supernatant was then removed and the formazan crystals formed solubilized by adding 150 μl of DMSO to each well. The plate was then read on a plate reader at 540 nm, and percentage cell survival calculated as follows: ((mean absorbance treated wells at concentration x−mean absorbance blank wells)÷(mean absorbance untreated wells at concentration x−mean absorbance blank wells))×100. Data were plotted as concentration in nM vs. % cell survival in Microsoft Excel, and IC50 values (concentration where cell survival is reduced by a half) were determined from the graph.

The next experiment deals with SW620 (Colorectal). As to the kind of experiment: MTT cytotoxicity assay, SW620. Format: cell-based. The following applies: Homo sapiens, SW-620, 72 hour incubation. The method, then:
as §1, §2

Experiment [1] relates to U138-MG (Glioblastoma) HIF++. As to the kind of experiment: MTT cytotoxicity assay, U138-MG. Format: cell-based. The following applies: Homo sapiens, 72 hour incubation. The method, then: as §1, §2
Another experiment has as its system A431 (Skin) HIF+. As to the kind of experiment: MTT cytotoxicity assay, A431. Format: cell-based. The following applies: Homo sapiens, A-431, 72 hour incubation. The method, then:
as §1, §2

In the next experiment the test system is MS1 DNA fragment. As to the kind of experiment: DNA footprinting (DNase I). Format: binding. The method, then: The DNA sequence selectivity profile of 16 was investigated using a modification of the previously established DNA footprinting assay. Following an overnight incubation of the ligand-DNA complexes, the mixture was mixed with strand separation buffer containing 10 mM EDTA, 10 mM NaOH, 0.1% bromophenol blue, 80% formamide and incubated at 100° C. for 3 min. The mixture was then immediately cooled on ice and run on an 8% denaturing gel. […] This is in contrast to control molecules (FIG. 2), where indiscriminate binding to the DNA sequence can be observed.
Methods for the preparation of the “MS1” DNA fragment (FIG. 2) have been previously described^[19]. Briefly, the sequence which had been cloned into the BamHI site of pUC18 was obtained by cutting with HindIII and EcoRI. Radiolabelled DNA fragments were prepared by filling in the 3′-end of the HindIII site with [α-^32P]dATP using Klenow DNA polymerase (exo-).
The radiolabelled DNA fragment was separated from the remainder of the plasmid DNA on a 6% non-denaturing polyacrylamide gel. […]
Footprinting reactions were performed as previously described^[20] using the “MS1” DNA fragment, which represents a random DNA sequence. […] After gel purification, the radiolabelled DNA was dissolved in 10 mM Tris HCl pH 7.5 containing 0.1 mM EDTA, at a concentration of about 10 c.p.s per μL as determined on a hand held Geiger counter. […]

Another experiment concerns transcription factors. As to the kind of experiment: Transcription factor plate array assay. The following applies: HeLa cells, 100 nM, 6 hours. Format: cell-based. The method, then: The transcription factor plate array assay kit was obtained from Signosis Inc (USA). Briefly, 2×10^6 HeLa cells were treated with 100 nM 16 and incubated for 6 hours before extracting the nuclear protein and carrying out the TF plate array assay. The assay was carried out following the manufacturer's protocol. In the case of each transcription factor, the RLU value obtained for the cells treated with 16 was deducted from the respective values obtained for the untreated cells to obtain the differences in TF activation/inhibition.

Usually IC50 stands for the point on the concentration scale where inhibition reaches its midpoint. On to `COc1cc2c(cc1OCCCC(=O)Nc1cc(C(=O)Nc3ccc(-c4cc(C)c(C(=O)Nc5ccccc5)s4)nc3)n(C)c1)N=C[C@@H]1CCCCN1C2=O` [Compound 16, (S)-4-(4-((2-Methoxy-12-oxo-6a,7,8,9,10,12-hexahydrobenzo[e]pyrido[1,2-a] [1,4]diazepin-3-yl)oxy)butanamido)-1-methyl-N-(6-(4-methyl-5-(phenyl-carbamoyl)thiophen-2-yl)pyridin-3-yl)-1H-pyrrole-2-carboxamide], for which the IC50 was 0.142 nM in the experiment on SW-48 (Colorectal); 1.6 nM in the experiment on LIM1215 (Colorectal); 0.302 nM in the experiment on SW620 (Colorectal); 0.261 nM in experiment [1]; 0.029 nM in the experiment with A431 (Skin) HIF+. Moreover, the “preferred binding site (sequence motif)” value in the experiment with MS1 DNA fragment (R is preferably a G or C, X is any base) is recorded as “XRXXRRXX”. The “DNA footprint / binding pattern on the MS1 DNA sequence” value in the experiment on MS1 DNA fragment (overnight incubation of ligand-DNA complexes) is recorded as “only two preferred sites were observed”. For the same molecule, the “major transcription factors down-regulated” value with transcription factors is “HIF1 (hypoxia-inducible factor 1), NF-1 (Neurofibromatosis type 1), FOXG1 and NF-κB”.

For the molecule `COc1cc2c(cc1OCCCC(=O)Nc1cc(C(=O)Nc3ccc(-c4cc(C(=O)Nc5ccccc5)n(C)c4)cc3)n(C)c1)N=C[C@@H]1CCCCN1C2=O` [Compound 22, (S)-4-(4-((2-Methoxy-12-oxo-6a,7,8,9,10,12-hexahydrobenzo[e]pyrido[1,2-a][1,4]diazepin-3-yl)oxy)butanamido)-1-methyl-N-(4-(1-methyl-5-(phenylcarbamoyl)-1H-pyrrol-3-yl)phenyl)-1H-pyrrole-2-carboxamide], the IC50 is 0.093 nM with SW-48 (Colorectal); 0.899 nM in the experiment on LIM1215 (Colorectal); 0.291 nM in the experiment with SW620 (Colorectal); 1.62 nM in experiment [1]; 0.055 nM in the experiment with A431 (Skin) HIF+. For the same molecule, the “potency relative to 16” value in the experiment with LIM1215 (Colorectal) (HIF1 negative cell-line LIM1215) is “two-fold more potent than 16”.

For the origin of these results see US20230302142A1, “Cytotoxic Agents” (priority 2020, published 2023).
